Laboratory results published in patent publication US20230271933A1, “HETEROCYCLIC IMMUNOMODULATOR” (Beijing Innocare Pharma Tech Co., Ltd., priority 2020, published 2023).

Target: hERG potassium ion channel (Homo sapiens, UniProt Q12809)
Test: Blockade of the hERG potassium ion channel (whole cell patch clamp)
Assay type: cell-based
Details: HEK293 cells stably overexpressing hERG, pH 7.4, tail current, read-out: The percentage of the inhibition to the hERG current at the solubility of 3 μM (n = 2)
Method: The effect of the compound of the present invention on possible arrhythmias was assessed by determining the blockade of the hERG potassium ion channel.
The experiment method was summarized as follows: • Extracellular fluid: 140 mM NaCl, 3.5 mM KCl, 1 mM MgCl2, 2 mM CaCl2, 10 mM D-glucose, 10 mM HEPES, 1.25 mM NaH2PO4, pH=7.4. • Electrode internal solution: 20 mM KCl, 115 mM K-aspartate, 1 mM MgCl2, 5 mM EGTA, 10 mM HEPES, 2 mM Na2-ATP, pH=7.2. • Compound solution: the compound to be tested was dissolved in DMSO and prepared into a stock solution having a concentration of 10 mM, then diluted into the concentration of 3 mM with DMSO, and then diluted into a solution having a concentration of 3 μM with the extracellular solution for subsequent use. • Cell culture: the HEK293 cell line with the stable hERG potassium channel overexpression (Creacell, Cat. No. A-0320) was cultured in a DMEM medium (Gibco, Cat. No. 11995-065) containing […] (Gibco, Cat. No. 1428478) and 0.8 mg/mL G418 (Amresco, Cat. No. E859-5G) at the culture temperature of 37° C. under the carbon dioxide concentration of […]. The spent medium was removed and the cells were washed once with PBS (Gibco, Cat. No. 1009-141). Then 1 mL TrypLE™ Express solution (Gibco, Cat. No. 12604021) was added and the cells were incubated at 37° C. […]. When the cells were detached from the bottom of the dish, 5 mL of complete medium preheated at 37° C. was added. The cell suspension was transferred to a sterile centrifuge tube and centrifuged at 1000 rpm for 5 minutes before cell collection. Cells were inoculated in 6 cm cell culture dishes at the cell inoculation volume of 2.5*10^5 per dish (final volume: 5 mL). Before the patch clamp detection experiment, 3*10^3 cells were plated on the cover slips, cultured in 24-well plates (final volume: 500 μL), and detected 18 hours later. • Voltage stimulation protocol by recording the whole-cell hERG potassium current with the whole cell patch clamp: after forming a whole-cell seal, the cell membrane voltage was clamped at −80 mV. The clamping voltage was depolarized from −80 mV to −50 mV and maintained for 0.5 seconds (as leakage current detection), then stepped to 30 mV and maintained for 2.5 seconds, then quickly returned to −50 mV and maintained for 4 seconds to excite the hERG channel tail current (Peak tail current), the hERG potassium current was recorded every other 10 seconds. Experiment data were collected with EPC-10 amplifier (HEKA) and stored in PatchMaster (HEKA v2x73) software. • Determination: A capillary glass tube (Sutter Instruments) was drawn into a recording electrode with a microelectrode drawing instrument (Sutter Instruments). The cell-loaded cover slip was removed from the 24-well plate placed in the incubator and then placed under an inverted microscope. […] In the whole-cell recording mode, the slow capacitance compensation was performed and the membrane capacitance and the series resistance were recorded, during which the leakage compensation was not applied. After the hERG tail current recorded with the whole cell was stabilized for 3-5 minutes, 8 mL of the compound-free extracellular fluid (blank control) and 8 mL of 3 μM solution of the compound to be tested were sequentially flowed through the recording bath with the gravity perfusion to act on the cells for 5 minutes (or to the current stabilization). The current detected for each cell in the compound-free extracellular fluid was served as its own control. […]

Chain of hERG potassium ion channel (Q12809 whole entry): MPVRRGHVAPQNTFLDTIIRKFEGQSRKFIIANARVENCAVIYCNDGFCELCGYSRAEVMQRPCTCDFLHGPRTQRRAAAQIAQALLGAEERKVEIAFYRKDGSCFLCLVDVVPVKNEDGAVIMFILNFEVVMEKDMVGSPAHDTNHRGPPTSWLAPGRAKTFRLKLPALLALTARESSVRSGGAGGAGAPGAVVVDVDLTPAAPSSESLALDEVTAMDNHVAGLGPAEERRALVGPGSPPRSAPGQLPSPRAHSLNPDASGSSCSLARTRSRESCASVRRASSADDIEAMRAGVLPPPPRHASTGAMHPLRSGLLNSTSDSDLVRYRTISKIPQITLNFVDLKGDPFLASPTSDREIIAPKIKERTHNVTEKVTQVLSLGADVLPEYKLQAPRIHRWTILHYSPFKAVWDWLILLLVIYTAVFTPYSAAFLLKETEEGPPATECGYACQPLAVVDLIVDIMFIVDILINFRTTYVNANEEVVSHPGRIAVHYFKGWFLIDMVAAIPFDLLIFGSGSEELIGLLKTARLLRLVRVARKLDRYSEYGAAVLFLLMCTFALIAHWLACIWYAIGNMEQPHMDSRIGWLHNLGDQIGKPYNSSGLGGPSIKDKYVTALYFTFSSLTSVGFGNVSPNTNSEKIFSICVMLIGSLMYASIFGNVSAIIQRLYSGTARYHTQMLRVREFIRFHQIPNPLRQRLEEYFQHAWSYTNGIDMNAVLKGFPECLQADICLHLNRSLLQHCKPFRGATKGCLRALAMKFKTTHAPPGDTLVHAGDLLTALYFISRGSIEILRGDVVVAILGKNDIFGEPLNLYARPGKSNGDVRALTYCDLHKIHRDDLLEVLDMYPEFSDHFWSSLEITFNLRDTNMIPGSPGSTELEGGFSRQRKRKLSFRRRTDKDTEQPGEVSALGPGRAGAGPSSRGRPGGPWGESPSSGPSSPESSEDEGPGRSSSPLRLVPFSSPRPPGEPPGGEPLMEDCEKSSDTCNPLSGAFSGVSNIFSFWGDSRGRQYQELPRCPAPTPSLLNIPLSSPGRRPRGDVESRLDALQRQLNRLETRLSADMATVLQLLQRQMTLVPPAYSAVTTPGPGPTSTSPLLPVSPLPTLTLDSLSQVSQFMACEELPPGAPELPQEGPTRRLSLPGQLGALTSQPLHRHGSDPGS

Compound: N#Cc1ccc(N2CCN(Cc3ccc(COc4cccc5c4CN([C@H]4CCC(=O)NC4=O)C5=O)cc3)CC2)c(F)c1 [CC-92480, reference compound]
- inhibition at 5 min, 3 µM: 76%
